Assay [1] has as its target T1, protein kinases (human kinome) (Homo sapiens, UniProt Q969Z0).
T1 sequence (Q969Z0 108-631): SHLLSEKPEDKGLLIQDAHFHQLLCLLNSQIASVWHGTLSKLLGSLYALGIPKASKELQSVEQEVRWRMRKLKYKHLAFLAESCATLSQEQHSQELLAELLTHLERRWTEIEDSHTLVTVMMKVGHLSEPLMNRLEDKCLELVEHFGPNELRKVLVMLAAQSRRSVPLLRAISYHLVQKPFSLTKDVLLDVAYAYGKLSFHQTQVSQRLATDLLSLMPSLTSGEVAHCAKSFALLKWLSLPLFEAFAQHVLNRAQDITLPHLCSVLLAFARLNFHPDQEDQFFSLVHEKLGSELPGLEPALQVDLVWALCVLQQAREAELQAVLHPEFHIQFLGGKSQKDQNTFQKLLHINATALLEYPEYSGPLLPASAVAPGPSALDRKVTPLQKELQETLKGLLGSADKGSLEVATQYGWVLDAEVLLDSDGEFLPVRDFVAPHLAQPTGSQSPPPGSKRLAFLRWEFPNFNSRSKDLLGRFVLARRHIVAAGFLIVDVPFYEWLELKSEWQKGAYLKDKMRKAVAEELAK
Type of assay: cell-based. As to conditions: Accession Q969Z0-1; experiment wp084; direction down.

Assay [2] addresses protein kinases (human kinome) (Homo sapiens, UniProt O14874). The format is cell-based. The note with it: BCKDK (O14874), experiment wp137.
Assay [3] concerns the target protein kinases (human kinome) (Homo sapiens, UniProt P31749). The format is cell-based. As to conditions: for logFC: AKT1 (P31749).
Assay [4] addresses protein kinases (human kinome) (Homo sapiens, UniProt P31751). Type of assay: cell-based. As to conditions: AKT2 (P31751).
In assay [5] the target is protein kinases (human kinome) (Homo sapiens, UniProt Q15118). Type of assay: cell-based. As to conditions: PDK1 Q15118; experiment wp137.
Sequence of protein kinases (human kinome) (Homo sapiens, UniProt Q15118) (Q15118 29-436): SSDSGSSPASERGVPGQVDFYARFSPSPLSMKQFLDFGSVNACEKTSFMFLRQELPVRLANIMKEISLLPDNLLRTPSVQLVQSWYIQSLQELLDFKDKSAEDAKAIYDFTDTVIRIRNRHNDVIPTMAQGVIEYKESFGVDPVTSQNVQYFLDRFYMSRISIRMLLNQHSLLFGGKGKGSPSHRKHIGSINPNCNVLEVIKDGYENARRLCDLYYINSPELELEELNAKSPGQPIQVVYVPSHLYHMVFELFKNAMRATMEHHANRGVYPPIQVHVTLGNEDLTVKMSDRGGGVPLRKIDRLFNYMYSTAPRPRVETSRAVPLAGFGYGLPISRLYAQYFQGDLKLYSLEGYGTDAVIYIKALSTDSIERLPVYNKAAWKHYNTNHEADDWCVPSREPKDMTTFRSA
Assay [6] deals with protein kinases (human kinome) (Homo sapiens, UniProt Q9Y243). Type of assay: cell-based. The note with it: AKT3 (Q9Y243-1).
Sequence of protein kinases (human kinome) (Homo sapiens, UniProt Q9Y243) (Q9Y243 whole entry): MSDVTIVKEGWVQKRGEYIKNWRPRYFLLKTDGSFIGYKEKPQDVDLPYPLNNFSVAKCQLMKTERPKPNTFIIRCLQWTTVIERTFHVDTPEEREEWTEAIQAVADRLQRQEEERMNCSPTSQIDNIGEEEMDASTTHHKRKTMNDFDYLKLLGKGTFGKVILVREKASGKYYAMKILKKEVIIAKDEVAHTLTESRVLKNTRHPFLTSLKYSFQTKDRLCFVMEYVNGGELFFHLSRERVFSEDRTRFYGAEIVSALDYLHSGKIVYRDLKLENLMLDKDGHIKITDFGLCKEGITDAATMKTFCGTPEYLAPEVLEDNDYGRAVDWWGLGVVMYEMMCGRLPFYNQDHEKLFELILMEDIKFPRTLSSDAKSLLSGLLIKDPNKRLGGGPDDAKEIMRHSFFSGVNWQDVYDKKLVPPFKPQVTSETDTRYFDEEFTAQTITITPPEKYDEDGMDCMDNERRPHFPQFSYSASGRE
The target of assay [7] is extended human kinome (kinase-like proteins) (Homo sapiens, UniProt P27144). Description: Whole cell quantitative proteomics: extended kinome hits. As to conditions: experiment wp137.
Sequence of extended human kinome (kinase-like proteins) (Homo sapiens, UniProt P27144) (P27144 whole entry): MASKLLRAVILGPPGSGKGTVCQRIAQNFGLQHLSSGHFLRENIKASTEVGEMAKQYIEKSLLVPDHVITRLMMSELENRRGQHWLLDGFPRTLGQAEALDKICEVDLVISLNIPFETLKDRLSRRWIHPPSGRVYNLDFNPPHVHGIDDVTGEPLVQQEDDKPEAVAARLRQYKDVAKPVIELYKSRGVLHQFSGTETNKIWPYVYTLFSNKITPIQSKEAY
Experimental: (§1) Whole cell multiplexed quantitative proteomics was employed to measure changes in abundance of the proteome in response to treatment with each of the kinase degrader molecules relative to DMSO (Table 1, Appendix I).
(§2) Cells were treated with DMSO (biological triplicate) or degrader at indicated dose and time and cells were harvested by centrifugation. […] Precipitated protein was resuspended in 4 M Urea, 50 mM HEPES pH 7.4, followed by dilution to 1 M urea with the addition of 200 mM EPPS, pH 8. Proteins were first digested with LysC (1:50: enzyme:protein) for 12 hours at room temperature. The LysC digestion was diluted to 0.5 M Urea with 200 mM EPPS pH 8 followed by digestion with trypsin (1:50; enzyme:protein) for 6 hours at 37° C. Tandem mass tag (TMT) reagents (Thermo Fisher Scientific) were dissolved in anhydrous acetonitrile (ACN) according to manufacturer's instructions. […] The 10, 11, or 16-plex labeling reactions were performed for 1.5 hours at room temperature and the reaction quenched by the addition of hydroxylamine to a final concentration of 0.3% for 15 minutes at room temperature. The sample channels were combined at a 1:1 ratio, desalted using C18 solid phase extraction cartridges (Waters®) and analyzed by LC-MS for channel ratio comparison. Samples were then combined using the adjusted volumes determined in the channel ratio analysis and dried down in a speed vacuum. The combined sample was then resuspended in 1% formic acid, and acidified (pH 2-3) before being subjected to desalting with C18 SPE (Sep-Pak®, Waters®). Samples were then offline fractionated into 96 fractions by high pH reverse-phase HPLC (Agilent® LC1260) through an aeris peptide xb-c18 column (Phenomenex®) with mobile phase A containing 5% acetonitrile and 10 mM NH4HCO3 in LC-MS grade H2O, and mobile phase B containing 90% acetonitrile and 10 mM NH4HCO3 in LC-MS grade H2O (both pH 8.0). The 96 resulting fractions were then pooled in a non-continuous manner into 24 fractions and desalted using C18 solid phase extraction plates (SOLA®, Thermo Fisher Scientific) followed by subsequent mass spectrometry analysis.
(§3) Data were collected using an Orbitrap Fusion™ Lumos™ mass spectrometer (Thermo Fisher Scientific, San Jose, CA, USA) coupled with a Proxeon EASY-nLC™ 1200 LC pump (Thermo Fisher Scientific) or an Orbitrap Eclipse™ Tribrid™ mass spectrometer (Thermo Fisher Scientific, San Jose, CA, USA) coupled with an UltiMate™ 3000 RSLCnano System. Peptides were separated on an EasySpray™ ES803a/ES803a.rev2 75 μm inner diameter microcapillary column (ThermoFisher Scientific).
(§4) Data dependent MS2 spectra were acquired in the ion trap with a normalized collision energy (NCE) set at 35%, AGC target set to 1.8×10^4 and a maximum injection time of 120 ms. MS3 scans were acquired in the Orbitrap with HCD collision energy set to 55%. AGC target set to 2×10^5, maximum injection time of 150 ms, resolution at 50,000 and with a maximum synchronous precursor selection (SPS) precursors set to 10.
(§5) Proteome Discoverer™ 2.1, 2.2 or 2.4 (Thermo Fisher Scientific) was used for .RAW file processing and controlling peptide and protein level false discovery rates, assembling proteins from peptides, and protein quantification from peptides.
In assay [8] the target is T2, extended human kinome (kinase-like proteins) (Homo sapiens, UniProt Q7L8L6).
T2 sequence (Q7L8L6 28-764): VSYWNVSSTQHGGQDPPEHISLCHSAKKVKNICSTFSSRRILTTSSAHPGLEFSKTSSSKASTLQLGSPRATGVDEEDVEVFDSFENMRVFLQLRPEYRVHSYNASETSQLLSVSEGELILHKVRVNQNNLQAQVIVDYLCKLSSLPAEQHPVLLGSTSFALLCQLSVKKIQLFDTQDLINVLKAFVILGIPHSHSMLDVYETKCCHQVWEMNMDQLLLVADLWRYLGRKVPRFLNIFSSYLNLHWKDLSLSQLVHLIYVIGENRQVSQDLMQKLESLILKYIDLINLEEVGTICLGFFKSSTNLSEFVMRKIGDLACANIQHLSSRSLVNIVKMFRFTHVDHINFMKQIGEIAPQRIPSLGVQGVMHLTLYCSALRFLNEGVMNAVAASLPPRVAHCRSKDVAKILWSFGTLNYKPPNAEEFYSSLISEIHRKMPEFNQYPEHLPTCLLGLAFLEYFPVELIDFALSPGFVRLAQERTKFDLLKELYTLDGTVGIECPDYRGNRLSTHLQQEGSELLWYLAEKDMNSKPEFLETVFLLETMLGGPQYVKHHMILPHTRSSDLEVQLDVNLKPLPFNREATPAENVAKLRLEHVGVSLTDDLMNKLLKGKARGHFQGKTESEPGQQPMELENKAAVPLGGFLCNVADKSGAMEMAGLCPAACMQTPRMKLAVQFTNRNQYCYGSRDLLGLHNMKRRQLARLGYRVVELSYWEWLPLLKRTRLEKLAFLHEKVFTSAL
The assay is described as above. The note with it: Accession Q7L8L6; experiment wp137.
Experimental: as §1, §2, §3, §4, §5

Assay [9] concerns the target T3, extended human kinome (kinase-like proteins) (Homo sapiens, UniProt Q9UHH9).
T3 sequence (Q9UHH9 1-426): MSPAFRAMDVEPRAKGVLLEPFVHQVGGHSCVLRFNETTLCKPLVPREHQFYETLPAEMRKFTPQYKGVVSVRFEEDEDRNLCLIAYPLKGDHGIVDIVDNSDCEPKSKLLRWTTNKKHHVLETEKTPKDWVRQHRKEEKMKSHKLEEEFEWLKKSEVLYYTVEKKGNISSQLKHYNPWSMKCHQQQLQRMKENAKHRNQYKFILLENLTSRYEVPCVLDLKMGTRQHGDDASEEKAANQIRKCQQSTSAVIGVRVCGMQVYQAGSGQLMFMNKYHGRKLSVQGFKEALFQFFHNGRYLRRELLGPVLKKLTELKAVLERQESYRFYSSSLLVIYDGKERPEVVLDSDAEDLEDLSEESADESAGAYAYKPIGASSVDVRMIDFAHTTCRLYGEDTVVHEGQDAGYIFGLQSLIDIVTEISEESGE
The assay is described as above. The note with it: Accession Q9UHH9.
Experimental: as §1, §2, §3, §4, §5

The target in assay [10] is protein kinases (human kinome) (Homo sapiens, UniProt P11802). Type of assay: cell-based. The note with it: experiment wp135, 8 hr.
Sequence of protein kinases (human kinome) (Homo sapiens, UniProt P11802) (P11802 whole entry): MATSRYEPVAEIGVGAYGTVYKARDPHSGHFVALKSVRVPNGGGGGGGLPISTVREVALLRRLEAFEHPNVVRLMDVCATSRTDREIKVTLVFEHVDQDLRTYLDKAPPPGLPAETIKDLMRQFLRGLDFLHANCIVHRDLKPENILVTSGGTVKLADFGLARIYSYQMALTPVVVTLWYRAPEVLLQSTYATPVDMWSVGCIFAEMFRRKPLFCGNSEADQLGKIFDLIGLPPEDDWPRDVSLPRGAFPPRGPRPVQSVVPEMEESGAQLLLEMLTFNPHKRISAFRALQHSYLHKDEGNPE
Assay [11] addresses T4, protein kinases (human kinome) (Homo sapiens, UniProt Q9UEE5).
T4 sequence (Q9UEE5 1-414): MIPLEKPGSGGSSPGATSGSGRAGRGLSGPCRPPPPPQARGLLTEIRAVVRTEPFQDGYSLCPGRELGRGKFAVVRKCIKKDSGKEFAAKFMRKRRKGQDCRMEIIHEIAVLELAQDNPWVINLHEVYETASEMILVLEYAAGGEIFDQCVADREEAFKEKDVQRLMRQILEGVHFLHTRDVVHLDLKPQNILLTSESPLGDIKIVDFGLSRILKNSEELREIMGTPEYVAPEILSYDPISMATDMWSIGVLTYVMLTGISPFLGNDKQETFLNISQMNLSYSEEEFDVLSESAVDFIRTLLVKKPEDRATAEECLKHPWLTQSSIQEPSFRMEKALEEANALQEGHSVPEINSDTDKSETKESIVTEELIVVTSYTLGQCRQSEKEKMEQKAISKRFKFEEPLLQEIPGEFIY
The format is cell-based. The note with it: STK17A Q9UEE5.

Assay [12] deals with T5, protein kinases (human kinome) (Homo sapiens, UniProt O95835).
T5 sequence (O95835 1-1130): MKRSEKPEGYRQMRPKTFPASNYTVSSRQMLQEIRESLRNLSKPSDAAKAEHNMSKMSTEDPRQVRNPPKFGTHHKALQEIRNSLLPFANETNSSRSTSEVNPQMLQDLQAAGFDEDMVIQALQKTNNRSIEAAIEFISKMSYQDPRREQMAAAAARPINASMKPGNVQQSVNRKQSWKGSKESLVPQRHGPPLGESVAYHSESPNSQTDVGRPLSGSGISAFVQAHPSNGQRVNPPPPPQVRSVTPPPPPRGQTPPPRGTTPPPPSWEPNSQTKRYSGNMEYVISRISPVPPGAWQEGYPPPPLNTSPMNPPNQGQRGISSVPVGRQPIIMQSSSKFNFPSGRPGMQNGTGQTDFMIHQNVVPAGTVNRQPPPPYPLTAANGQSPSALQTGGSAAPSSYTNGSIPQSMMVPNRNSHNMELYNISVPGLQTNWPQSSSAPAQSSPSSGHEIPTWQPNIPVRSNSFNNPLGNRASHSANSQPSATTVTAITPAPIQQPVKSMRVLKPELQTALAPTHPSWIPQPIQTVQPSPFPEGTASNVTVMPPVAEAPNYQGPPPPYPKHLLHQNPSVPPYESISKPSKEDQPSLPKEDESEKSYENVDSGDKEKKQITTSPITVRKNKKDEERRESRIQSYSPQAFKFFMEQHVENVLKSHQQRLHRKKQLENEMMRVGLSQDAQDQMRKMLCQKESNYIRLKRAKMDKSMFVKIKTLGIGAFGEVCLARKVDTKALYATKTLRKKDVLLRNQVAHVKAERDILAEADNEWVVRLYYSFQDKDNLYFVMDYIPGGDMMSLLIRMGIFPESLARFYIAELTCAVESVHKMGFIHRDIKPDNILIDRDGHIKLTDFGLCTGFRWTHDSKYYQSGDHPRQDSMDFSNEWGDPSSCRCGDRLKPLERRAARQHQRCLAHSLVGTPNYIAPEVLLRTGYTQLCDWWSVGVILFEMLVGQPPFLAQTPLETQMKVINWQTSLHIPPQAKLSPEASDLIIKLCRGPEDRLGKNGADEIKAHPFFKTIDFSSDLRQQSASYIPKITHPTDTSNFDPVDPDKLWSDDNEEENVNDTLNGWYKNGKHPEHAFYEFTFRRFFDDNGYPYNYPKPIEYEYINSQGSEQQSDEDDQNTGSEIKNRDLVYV
Type of assay: cell-based. The note with it: LATS1 O95835; experiment wp195.

Where [13] appears, read: experiment wp104, direction down.
Where [14] appears, read: experiment wp137, direction down.
[15] abbreviates: experiment wp135, 8 hr, direction down.

Where two headings read alike, the source gives them in different places.

Sequence of protein kinases (human kinome) (Homo sapiens, UniProt P31751) (P31751 whole entry): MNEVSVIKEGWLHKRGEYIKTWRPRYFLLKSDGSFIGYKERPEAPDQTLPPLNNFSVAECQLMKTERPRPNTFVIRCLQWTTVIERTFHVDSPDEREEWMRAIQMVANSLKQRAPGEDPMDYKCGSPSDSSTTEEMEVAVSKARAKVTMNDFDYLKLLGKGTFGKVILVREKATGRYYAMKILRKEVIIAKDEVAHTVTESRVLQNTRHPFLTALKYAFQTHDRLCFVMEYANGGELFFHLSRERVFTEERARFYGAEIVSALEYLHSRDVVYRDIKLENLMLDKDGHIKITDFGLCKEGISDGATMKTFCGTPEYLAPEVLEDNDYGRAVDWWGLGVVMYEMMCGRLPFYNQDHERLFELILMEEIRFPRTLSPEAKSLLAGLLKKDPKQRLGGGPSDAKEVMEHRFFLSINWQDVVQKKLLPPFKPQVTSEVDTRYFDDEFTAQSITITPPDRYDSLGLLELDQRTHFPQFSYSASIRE
Sequence of protein kinases (human kinome) (Homo sapiens, UniProt P31749) (P31749 whole entry): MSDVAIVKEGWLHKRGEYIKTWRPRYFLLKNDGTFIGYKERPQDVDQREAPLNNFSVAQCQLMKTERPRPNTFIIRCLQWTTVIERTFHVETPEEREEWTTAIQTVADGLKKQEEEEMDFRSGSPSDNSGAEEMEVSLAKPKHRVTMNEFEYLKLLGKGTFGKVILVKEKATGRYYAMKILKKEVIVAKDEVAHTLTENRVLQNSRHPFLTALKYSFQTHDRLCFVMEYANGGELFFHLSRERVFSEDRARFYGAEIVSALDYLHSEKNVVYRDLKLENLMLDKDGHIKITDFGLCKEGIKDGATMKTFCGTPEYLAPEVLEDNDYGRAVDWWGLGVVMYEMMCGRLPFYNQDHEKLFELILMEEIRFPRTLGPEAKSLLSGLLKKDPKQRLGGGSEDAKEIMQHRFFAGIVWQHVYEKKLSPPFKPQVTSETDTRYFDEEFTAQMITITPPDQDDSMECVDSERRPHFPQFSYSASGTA

`CC(=O)c1c(C)c2cnc(Nc3ccc(N4CCN(CCOCCOCCOCCNC(=O)COc5cccc6c5C(=O)N(C5CCC(=O)NC5=O)C6=O)CC4)cn3)nc2n(C2CCCC2)c1=O` (stereo not shown) [BS.J.03.123]: in assay [1], the “logFC TBRG4” value is recorded as −0.5.

For the compound `C[C@@H]1C[C@@H](O)c2ncnc(N3CCN(C(=O)[C@H](CNCCCCCCCCNC(=O)COc4cccc5c4C(=O)N(C4CCC(=O)NC4=O)C5=O)c4ccc(Cl)cc4)CC3)c21` (stereo partly shown) [INY.02.164], the logFC was −0.36 in assay [2]; −0.36 in assay [2] (direction down); −0.7926 in assay [3] (experiment wp104); −3.206 in [3] (experiment wp137); −1.078 in assay [4] (experiment wp104); −1.078 in assay [4] (setting [13]). Further, the logFC in [4] (experiment wp137) is recorded as −3.156; in assay [4] (setting [14]), −3.156; in [5], −0.4419; in assay [6] (experiment wp104), −1.478; in assay [6] (setting [13]), −1.478; in assay [6] (experiment wp137) it was −3.147. In assay [6] (setting [14]), the logFC is given as −3.147. Further, the “logFC of AKT1 (P31749)” value in [3] (Experiment wp104) is −0.7926; in assay [3] (experiment wp137), −3.206. For the same compound, in assay [5], the “logFC PDK1” value is on record as −0.4419. In addition, in assay [7], the “logFC AK4 (P27144)” value was −0.5601. For the same compound, the “logFC FASTKD5” value in assay [8] was −0.3422. Besides, the “logFC IP6K2” value in assay [9] (experiment wp137) is −0.5449.

In the case of `C[C@@H]1C[C@@H](O)c2ncnc(N3CCN(C(=O)[C@H](CNCCCCCCCCCCc4cccc5c4C(=O)N(C4CCC(=O)NC4=O)C5=O)c4ccc(Cl)cc4)CC3)c21` (stereo partly shown) [INY.03.041_01], the “logFC CDK4 (P11802)” value in assay [10] is on record as −0.3281. The logFC in assay [3] (experiment wp135, 8 hr) was −2.273; in assay [4] (experiment wp135, 8 hr), −2.274; in assay [4] (setting [15]), −2.274; in [11] (experiment wp135, 8 hr), −0.497; in assay [6] (experiment wp135, 8 hr), −2.215; in [6] (setting [15]) it was −2.215. For the same compound, in assay [3] (experiment wp135, 8 hr), the “logFC of AKT1 (P31749)” value is −2.273. Besides, the “logFC IP6K2” value in assay [9] (experiment wp135, 8 hr) is reported as −0.6456.

Turning to `Cc1ncsc1-c1ccc([C@H](C)NC(=O)[C@@H]2C[C@@H](O)CN2C(=O)[C@@H](NC(=O)CCCCOc2ccccc2-c2ccc3nc(-c4cccnc4N)n(-c4ccc(C5(N)CCC5)cc4)c3n2)C(C)(C)C)cc1` [INY.04.125.01], in assay [12], the logFC is listed as −0.4176 and the “logFC LATS1” value is −0.4176. Further, in assay [11] (experiment wp195), the logFC is recorded as −0.4084 and the “logFC STK17A” value is given as −0.4084. Besides, the “logFC IP6K2” value in [9] (experiment wp195) is −0.4946.

These data come from patent publication US20240269139A1, “COMPOUNDS FOR TARGETED PROTEIN DEGRADATION OF KINASES” (DANA-FARBER CANCER INSTITUTE, INC., priority 2020, published 2024).
